# Laboratory results from US5716982A, “Retinoids and methods of use of same” (priority 1995, dated 1998).
# Legend:
# [1] = test system: fetus absorption in mice; experiment: Fetus absorption in mice (anti-teratogenicity); assay type: in vivo, mouse; conditions: 15 mg/kg, 15 pregnant mice
# Protocol: (§1) Female mice were examined by vaginal smear the morning after being caged with male mice, and if sperm or a vaginal plug was discovered, then the mice were determined to be pregnant. The retinoids were administered at the dosage indicated starting on the seventh day of pregnancy and continued once a day for the next ten days. On the 20th day after the female mice were determined to be pregnant, they were sacrificed by cervical dislocation. Both sides of the uterus were checked and the number of living embryos, dead embryos, and absorbed embryos were counted. The living embryos were further examined for bone abnormalities.
# [2] = test system: human acute myeloid leukemia (AML), neuroblastoma, teratocarcinoma, melanoma, and rat rhabdomyosarcoma cells; conditions: Smith et al. 1992; cited from earlier work
# [3] = test system: bone abnormalities in mouse fetus; experiment: Bone abnormalities in mouse fetus (anti-teratogenicity); assay type: in vivo
# Protocol: as §1
# After the embryos became transparent, they were dissected and their skeletons were checked by observation under a microscope.
compound,measurement,setting,value
"CC1=C(/C=C/C(C)=C/C=C/C(C)=C/C(=O)O)C(C)(C)CCC1 [All Trans RA, all-trans-retinoic acid, reference compound]",Implanted Number,[1],186
same,cell differentiation,[2],"induces cell differentiation in some human acute myeloid leukemia (AML), neuroblastoma, teratocarcinoma, melanoma, and rat rhabdomyosarcoma cells"
same,"Delayed Calcification, Occipital number/fetus number",[3]; 10 mg/kg,16/16
same,"Delayed Calcification, Sternum number/fetus number",[3]; 10 mg/kg,16/16
same,Cleft Palate (%),[3]; 15 mg/kg,48%
same,"Delayed Calcification (%), Occipital",[3]; 15 mg/kg,96.0%
same,"Delayed Calcification (%), Sternum",[3]; 15 mg/kg,71.0%
same,"Delayed Calcification, Occipital delay/fetus",[3]; 101 mg/kg (so in the source),6/16
same,"Delayed Calcification, Sternum delay/fetus",[3]; 101 mg/kg (so in the source),16/16
